Results published in ChEMBL document CHEMBL4420076, “Amylin and calcitonin receptor agonist” (2017).
≈ marks a conversion by molar mass, not a printed value. Numbered stars: 1 amine (or outer) side, 2 acyl side, 3 side chain; on linkers, the order of the positions; unused ones are H or OH. Peptide text beside a SMILES is read from it. * marks the point of attachment. C20 diacid = O=C(O)CCCCCCCCCCCCCCCCCCC(=O)*; C18 diacid = O=C(O)CCCCCCCCCCCCCCCCC(=O)*; γGlu = O=C(O)[C@H](CCC(=O)[*:2])N[*:1]; C12 diacid = O=C(O)CCCCCCCCCCC(=O)*

How the values were obtained:
Rattus norvegicus [1] = test: Reduction in food intake in Sprague-Dawley rat at 3 nmol/kg measured 0 to 24 hrs post dose relative to control; type: functional; design: scale not given: the % may be the effect or the level left
Rattus norvegicus [2] = test: Reduction in food intake in Sprague-Dawley rat at 3 nmol/kg measured 24 to 48 hrs post dose relative to control; type: functional; design: scale not given: the % may be the effect or the level left
[3] = biological target: T1, Amylin receptor AMY3; CALCR/RAMP3 (Homo sapiens, UniProt O60896+P30988); test: Agonist activity at human amylin receptor expressed in BHK570 cells co-expressing RAMP3 assessed as increase in intracellular cAMP concentration incubated for 3 hrs in absence of albumin by CRE luciferase reporter gene assay; type: functional, cell-based
T1 sequence (P30988 whole entry): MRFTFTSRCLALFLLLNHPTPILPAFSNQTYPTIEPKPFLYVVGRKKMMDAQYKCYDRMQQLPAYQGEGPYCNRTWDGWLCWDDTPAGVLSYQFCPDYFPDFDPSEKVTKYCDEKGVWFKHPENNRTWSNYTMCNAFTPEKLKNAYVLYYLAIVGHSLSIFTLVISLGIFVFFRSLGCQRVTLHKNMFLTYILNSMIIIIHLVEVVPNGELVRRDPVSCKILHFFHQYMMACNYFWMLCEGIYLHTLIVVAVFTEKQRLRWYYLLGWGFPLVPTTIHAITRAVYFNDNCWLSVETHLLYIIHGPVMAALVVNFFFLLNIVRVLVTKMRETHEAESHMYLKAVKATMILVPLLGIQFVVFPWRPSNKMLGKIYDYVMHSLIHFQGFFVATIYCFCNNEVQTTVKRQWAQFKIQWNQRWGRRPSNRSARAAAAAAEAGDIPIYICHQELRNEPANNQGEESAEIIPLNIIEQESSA
T1 sequence (O60896 whole entry): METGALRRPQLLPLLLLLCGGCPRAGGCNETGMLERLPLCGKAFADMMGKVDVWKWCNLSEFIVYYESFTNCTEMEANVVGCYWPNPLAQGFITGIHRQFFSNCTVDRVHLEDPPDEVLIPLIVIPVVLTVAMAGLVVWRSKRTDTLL

Calcitonin receptor [4] = biological target: T2, Calcitonin receptor (Homo sapiens, UniProt P30988); test: Agonist activity at human calcitonin receptor expressed in BHK570 cells assessed as increase in intracellular cAMP concentration incubated for 3 hrs in absence of albumin by CRE luciferase reporter gene assay; type: functional, cell-based
T2 sequence (P30988 whole entry): T1 sequence (P30988 whole entry)

[5] = Solubility in 100 mM bistrispropane buffer at pH 6.5 incubated for 18 hrs by UPLC analysis; type: physicochemical
[6] = biological target: T1, Amylin receptor AMY3; CALCR/RAMP3; test: Displacement of [125I]-labeled rat amylin from human amylin receptor expressed in BHK tkts13 whole cells co-expressing RAMP3 incubated for 60 mins by scintillation proximity assay; type: cell-based
Calcitonin receptor [7] = biological target: T2, Calcitonin receptor; test: Agonist activity at human calcitonin receptor expressed in BHK570 cells assessed as increase in intracellular cAMP concentration incubated for 3 hrs in presence of 10% FBS by CRE luciferase reporter gene assay; type: functional, cell-based
[8] = Solubility in 100 mM glycylglycine buffer at pH 3.0 incubated for 18 hrs by UPLC analysis; type: physicochemical
[9] = Solubility in 100 mM glycylglycine buffer at pH 4.0 incubated for 18 hrs by UPLC analysis; type: physicochemical
[10] = Solubility in 100 mM bistrispropane buffer at pH 6.0 incubated for 18 hrs by UPLC analysis; type: physicochemical
[11] = Solubility in 100 mM glycylglycine buffer at pH 5.0 incubated for 18 hrs by UPLC analysis; type: physicochemical
[12] = Solubility in 100 mM bistrispropane buffer at pH 7.0 incubated for 18 hrs by UPLC analysis; type: physicochemical
[13] = Solubility in 100 mM bistrispropane buffer at pH 7.5 incubated for 18 hrs by UPLC analysis; type: physicochemical
[14] = Solubility in 100 mM bistrispropane buffer at pH 8.0 incubated for 18 hrs by UPLC analysis; type: physicochemical
[15] = biological target: T1, Amylin receptor AMY3; CALCR/RAMP3; test: Agonist activity at human amylin receptor expressed in BHK570 cells co-expressing RAMP3 assessed as increase in intracellular cAMP concentration incubated for 3 hrs in presence of 10% FBS by CRE luciferase reporter gene assay; type: functional, cell-based

SMILES	EC50 [3]	EC50 (Calcitonin receptor [4])	solubility at 18 h [5]	IC50 [6]	EC50 (Calcitonin receptor [7])	solubility at 18 h [8]	solubility at 18 h [9]	solubility at 18 h [10]	solubility at 18 h [11]	solubility at 18 h [12]	solubility at 18 h [13]	solubility at 18 h [14]	EC50 [15]	Activity (Rattus norvegicus [1])	Activity (Rattus norvegicus [2])
CC(C)C[C@H](NC(=O)[C@H](C)NC(=O)[C@H](C)NC(=O)[C@@H](NC(=O)[C@H](CO)NC(=O)[C@H](CC(C)C)NC(=O)[C@H](CCC(=O)O)NC(=O)[C@H](CO)NC(=O)[C@H](C)NC(=O)CC[C@H](NC(=O)CCCCCCCCCCCCCCCCC(=O)O)C(=O)O)[C@@H](C)O)C(=O)NCC(=O)N[C@@H](CCCNC(=N)N)C(=O)N[C@@H](CC(C)C)C(=O)N[C@@H](CO)C(=O)N[C@@H](C)C(=O)N[C@@H](CCC(=O)O)C(=O)N[C@@H](CC(C)C)C(=O)N[C@@H](Cc1c[nH]cn1)C(=O)N[C@@H](CCC(=O)O)C(=O)N[C@@H](CC(C)C)C(=O)N[C@@H](C)C(=O)N[C@H](C(=O)N[C@@H](Cc1ccc(O)cc1)C(=O)N1CCC[C@H]1C(=O)N[C@@H](CCCNC(=N)N)C(=O)N[C@H](C(=O)N[C@@H](CCC(=O)O)C(=O)N[C@H](C(=O)NCC(=O)N[C@@H](CO)C(=O)NCC(=O)N[C@@H](CO)C(=O)N1CCC[C@H]1C(N)=O)[C@@H](C)O)[C@@H](C)O)[C@@H](C)O ({C18 diacid-γGlu}-ASELSTAALGRLSAELHELATYPRTETGSGSP-NH2)														74%	63%
CC(C)C[C@H](NC(=O)[C@H](C)NC(=O)[C@H](C)NC(=O)[C@@H](NC(=O)[C@H](CO)NC(=O)[C@H](CC(C)C)NC(=O)[C@H](CCC(=O)O)NC(=O)[C@H](CO)NC(=O)[C@H](C)NC(=O)CC[C@H](NC(=O)CCCCCCCCCCCCCCCCCCC(=O)O)C(=O)O)[C@@H](C)O)C(=O)NCC(=O)N[C@@H](Cc1cnc[nH]1)C(=O)N[C@@H](CC(C)C)C(=O)N[C@@H](CO)C(=O)N[C@@H](C)C(=O)N[C@@H](CCC(=O)O)C(=O)N[C@@H](CC(C)C)C(=O)N[C@@H](Cc1cnc[nH]1)C(=O)N[C@@H](CCC(=O)O)C(=O)N[C@@H](CC(C)C)C(=O)N[C@@H](C)C(=O)N[C@H](C(=O)N[C@@H](CC(C)C)C(=O)N1CCC[C@H]1C(=O)N[C@@H](Cc1cnc[nH]1)C(=O)N[C@H](C(=O)N[C@@H](CCC(=O)O)C(=O)N[C@H](C(=O)NCC(=O)N[C@@H](CO)C(=O)NCC(=O)N[C@@H](CO)C(=O)N1CCC[C@H]1C(N)=O)[C@@H](C)O)[C@@H](C)O)[C@@H](C)O ({C20 diacid-γGlu}-ASELSTAALGHLSAELHELATLPHTETGSGSP-NH2)	26 pM	12 pM	≥ 200 µM		123 pM	≥ 200 µM	≥ 200 µM	≥ 200 µM	≥ 200 µM	≥ 200 µM	≥ 200 µM	≥ 200 µM		7%	3%

The remaining molecules from weak to strong by EC50 (Calcitonin receptor [4]), led by results:

EC50 [3]	EC50 (Calcitonin receptor [4])	solubility at 18 h [5]	IC50 [6]	EC50 (Calcitonin receptor [7])	solubility at 18 h [8]	solubility at 18 h [9]	solubility at 18 h [10]	solubility at 18 h [11]	solubility at 18 h [12]	solubility at 18 h [13]	solubility at 18 h [14]	EC50 [15]	SMILES	Activity (Rattus norvegicus [1])	Activity (Rattus norvegicus [2])
	23 pM	≥ 200 µM		92 pM	≥ 200 µM	≥ 200 µM	≥ 200 µM		≥ 200 µM	≥ 200 µM	≥ 200 µM		CC(C)C[C@H](NC(=O)CNC(=O)[C@H](CO)NC(=O)[C@H](C)NC(=O)[C@H](CCC(=O)O)NC(=O)CC[C@H](NC(=O)CCCCCCCCCCCCCCCCCCC(=O)O)C(=O)O)C(=O)N[C@@H](CO)C(=O)N[C@H](C(=O)N[C@@H](C)C(=O)N[C@@H](C)C(=O)N[C@@H](CC(C)C)C(=O)NCC(=O)N[C@@H](CCCNC(=N)N)C(=O)N[C@@H](CC(C)C)C(=O)N[C@@H](CO)C(=O)N[C@@H](CCC(N)=O)C(=O)N[C@@H](CCC(=O)O)C(=O)N[C@@H](CC(C)C)C(=O)N[C@@H](Cc1cnc[nH]1)C(=O)N[C@@H](CCC(=O)O)C(=O)N[C@@H](CC(C)C)C(=O)N[C@@H](CCC(N)=O)C(=O)N[C@H](C(=O)N[C@@H](Cc1ccc(O)cc1)C(=O)N1CCC[C@H]1C(=O)N[C@@H](CCCNC(=N)N)C(=O)N[C@H](C(=O)N[C@@H](CCC(=O)O)C(=O)N[C@H](C(=O)NCC(=O)N[C@@H](CO)C(=O)NCC(=O)N[C@H](C(=O)N[C@@H](Cc1ccc(O)cc1)C(N)=O)[C@@H](C)O)[C@@H](C)O)[C@@H](C)O)[C@@H](C)O)[C@@H](C)O ({C20 diacid-γGlu}-EASGLSTAALGRLSQELHELQTYPRTETGSGTY-NH2)	23%	10%
12 pM	14 pM	≥ 200 µM	1590 pM	74 pM	≥ 200 µM	≥ 200 µM	≥ 200 µM	≥ 200 µM	≥ 200 µM	≥ 200 µM	≥ 200 µM	143 pM	CC(C)C[C@H](NC(=O)[C@H](C)NC(=O)[C@H](C)NC(=O)[C@@H](NC(=O)[C@H](CO)NC(=O)[C@H](CC(C)C)NC(=O)[C@H](CCC(=O)O)NC(=O)[C@H](CO)NC(=O)[C@H](C)NC(=O)[C@H](CCC(=O)O)NC(=O)CC[C@H](NC(=O)CCCCCCCCCCCCCCCCCCC(=O)O)C(=O)O)[C@@H](C)O)C(=O)NCC(=O)N[C@@H](CCCNC(=N)N)C(=O)N[C@@H](CC(C)C)C(=O)N[C@@H](CO)C(=O)N[C@@H](C)C(=O)N[C@@H](CCC(=O)O)C(=O)N[C@@H](CC(C)C)C(=O)N[C@@H](Cc1cnc[nH]1)C(=O)N[C@@H](CCC(=O)O)C(=O)N[C@@H](CC(C)C)C(=O)N[C@@H](C)C(=O)N[C@H](C(=O)N[C@@H](Cc1ccc(O)cc1)C(=O)N1CCC[C@H]1C(=O)N[C@@H](CCCNC(=N)N)C(=O)N[C@H](C(=O)N[C@@H](CCC(=O)O)C(=O)N[C@H](C(=O)NCC(=O)N[C@@H](CO)C(=O)NCC(=O)N[C@@H](CO)C(=O)N1CCC[C@H]1C(N)=O)[C@@H](C)O)[C@@H](C)O)[C@@H](C)O ({C20 diacid-γGlu}-EASELSTAALGRLSAELHELATYPRTETGSGSP-NH2)		
23 pM	8 pM	5 µM (≈ 18.2 µg/mL)	8970 pM										CC(C)C[C@H](NC(=O)[C@H](C)NC(=O)[C@H](C)NC(=O)[C@@H](NC(=O)[C@H](CO)NC(=O)[C@H](CC(C)C)NC(=O)[C@H](CCC(=O)O)NC(=O)[C@H](CO)NC(=O)[C@H](C)NC(=O)[C@H](CCC(=O)O)NC(=O)CCCCCCCCCCC(=O)O)[C@@H](C)O)C(=O)NCC(=O)N[C@@H](CCCNC(=N)N)C(=O)N[C@@H](CC(C)C)C(=O)N[C@@H](CO)C(=O)N[C@@H](C)C(=O)N[C@@H](CCC(=O)O)C(=O)N[C@@H](CC(C)C)C(=O)N[C@@H](Cc1cnc[nH]1)C(=O)N[C@@H](CCC(=O)O)C(=O)N[C@@H](CC(C)C)C(=O)N[C@@H](C)C(=O)N[C@H](C(=O)N[C@@H](CC(C)C)C(=O)N1CCC[C@H]1C(=O)N[C@@H](CCCNC(=N)N)C(=O)N[C@H](C(=O)N[C@@H](CCC(=O)O)C(=O)N[C@H](C(=O)NCC(=O)N1CCC[C@H]1C(=O)N[C@@H](CCC(=O)O)C(=O)N[C@@H](CO)C(=O)N1CCC[C@H]1C(N)=O)[C@@H](C)O)[C@@H](C)O)[C@@H](C)O ({C12 diacid}-EASELSTAALGRLSAELHELATLPRTETGPESP-NH2)	2%	-12%
